Test results from ChEMBL document CHEMBL1949608, “Induction of apoptosis in HL-60 cells through the ROS-mediated mitochondrial pathway by ramentaceone from Drosera aliciae” (J Nat Prod, 2012).
The source made the active and inactive calls. No cut-off for these calls is given here.

How the values were obtained:
HL-60 [1] = test: Induction of apoptosis in human HL60 cells assessed as formation of chromatin condensation at 10 uM after 24 hrs by Hoechst 33342 and propidium iodide staining; type: functional, cell-based
HL-60 [2] = test: Induction of apoptosis in human HL60 cells assessed as formation of apoptotic body at 10 uM after 24 hrs by fluorescence microscopic analysis; type: functional, cell-based
HL-60 [3] = test: Induction of apoptosis in human HL60 cells assessed as formation of cell shrinkage at 10 uM after 24 hrs by fluorescence microscopic analysis; type: functional, cell-based
HL-60 [4] = test: Induction of apoptosis in human HL60 cells assessed as formation of membrane blebbing at 10 uM after 24 hrs by fluorescence microscopic analysis; type: functional, cell-based
HL-60 [5] = test: Cytotoxicity against human HL60 cells after 24 hrs by MTT assay; type: functional, cell-based
HL-60 [6] = test: Cell cycle arrest in human HL60 cells assessed as accumulation at sub-G1 phase at 5 uM after 12 hrs using propidium iodide staining by flow cytometry (reference value: 5.2%); type: functional
HL-60 [7] = test: Cell cycle arrest in human HL60 cells assessed as accumulation at sub-G1 phase at 10 uM after 12 hrs using propidium iodide staining by flow cytometry (reference value: 5.2%); type: functional
HL-60 [8] = test: Cell cycle arrest in human HL60 cells assessed as accumulation at sub-G1 phase at 5 uM after 24 hrs using propidium iodide staining by flow cytometry (reference value: 6.6%); type: functional
HL-60 [9] = test: Cell cycle arrest in human HL60 cells assessed as accumulation at sub-G1 phase at 10 uM after 24 hrs using propidium iodide staining by flow cytometry (reference value: 6.6%); type: functional
HL-60 [10] = test: Cell cycle arrest in human HL60 cells assessed as accumulation at sub-G1 phase after 12 to 24 hrs using propidium iodide staining by flow cytometry; type: functional, cell-based
HL-60 [11] = test: Cell cycle arrest in human HL60 cells assessed as accumulation at sub-G1 phase at 5 to 10 uM using propidium iodide staining by flow cytometry; type: functional, cell-based; conditions: TDE = time-dependent effect
HL-60 [12] = test: Cell cycle arrest in human HL60 cells assessed as accumulation at G0/G1 phase at 10 uM after 24 hrs using propidium iodide staining by flow cytometry; type: functional, cell-based
HL-60 [13] = test: Cell cycle arrest in human HL60 cells assessed as accumulation at G2/M phase at 10 uM after 24 hrs using propidium iodide staining by flow cytometry; type: functional, cell-based
HL-60 [14] = test: Induction of apoptosis in human HL60 cells assessed as loss of mitochondrial membrane potential using CMTMRos after 24 hrs by flow cytometry; type: functional, cell-based
HL-60 [15] = test: Induction of apoptosis in human HL60 cells assessed as increase in Bak protein level after 24 hrs by Western blotting; type: functional, cell-based
HL-60 [16] = test: Induction of apoptosis in human HL60 cells assessed as increase in Bax protein level after 24 hrs by Western blotting; type: functional, cell-based
HL-60 [17] = test: Induction of apoptosis in human HL60 cells assessed as decrease in Bcl-2 protein level at 5 to 10 uM after 24 hrs by Western blotting; type: functional, cell-based
HL-60 [18] = test: Induction of apoptosis in human HL60 cells assessed as increase in cytochrome c release from mitochondria to cytosol after 24 hrs by Western blotting; type: functional, cell-based
HL-60 [19] = test: Induction of apoptosis in human HL60 cells assessed as increase of caspase-3-mediated Ac-DEVD-pNA cleavage at 10 uM after 12 hrs; type: functional, cell-based
HL-60 [20] = test: Induction of apoptosis in human HL60 cells assessed as increase of caspase-3-mediated Ac-DEVD-pNA cleavage at 10 uM after >12 hrs; type: functional, cell-based
HL-60 [21] = test: Induction of apoptosis in human HL60 cells assessed as increase of ROS production using H2DCFDA after 3 hrs by flow cytometry; type: functional, cell-based
HL-60 [22] = test: Induction of apoptosis in human HL60 cells assessed as increase of ROS production using H2DCFDA after 3 hrs by flow cytometry in presence of N-acetylcysteine; type: functional, cell-based
HL-60 [23] = test: Cell cycle arrest in human HL60 cells assessed as accumulation at sub-G1 phase at 10 uM after 24 hrs using propidium iodide staining by flow cytometry in presence of N-acetylcysteine; type: functional

With Cc1cc(O)c2c(c1)C(=O)C=CC2=O [RAMENTACEONE] the Activity (HL-60 [1]) was “Active”, the Activity (HL-60 [2]) was “Active” and the Activity (HL-60 [3]) was “Active”. For the same compound, the Activity (HL-60 [4]) was “Active”, the Activity (HL-60 [5]) was “Dose-dependent effect” and the IC50 (HL-60 [5]; HL-60, 24 h) was 8.75 µM. It also gave an Activity (HL-60 [6]) of 10.3%, an Activity (HL-60 [7]) of 17.1% and an Activity (HL-60 [8]) of 12.6%. The Activity (HL-60 [9]) was 27.5%, the Activity (HL-60 [10]) was “Dose-dependent effect” and the Activity (HL-60 [11]) was “tde”. For the same compound, the Activity (HL-60 [12]) was “Active”, the Activity (HL-60 [13]) was “Active” and the Activity (HL-60 [14]) was “Dose-dependent effect”. The Activity (HL-60 [15]) was “Dose-dependent effect”, the Activity (HL-60 [16]) was “Dose-dependent effect” and the Activity (HL-60 [17]) was “Active”. For the same compound, the Activity (HL-60 [18]) was “Dose-dependent effect”, the Activity (HL-60 [19]) was “Active” and the Activity (HL-60 [20]) was “inactive”. The Activity (HL-60 [21]) was “Dose-dependent effect”, the Activity (HL-60 [22]) was “inactive” and the Activity (HL-60 [23]) was 12.3%.
